# Reference: patent US20220281931A1, “CHEMICALLY INDUCIBLE POLYPEPTIDE POLYMERIZATION” (Dana-Farber Cancer Institute, Inc., priority 2019, published 2022)
# Assays:
# SuDHL4Cas9 cells = assay: Whole proteome quantification using tandem mass tag mass spectrometry; format: cell-based, human; conditions: SuDHL4 cells, 1 μM compound, 4 hours
# Procedure: 10×10^6 SuDHL4Cas9 cells were treated with DMSO, 1 μM BI-3802 or 1 μM BI-3812 for 1 h or 4 h in triplicates and cells were harvested by centrifugation. Samples were processed, measured and analyzed as previously described (Donovan, K. A. et al. Thalidomide promotes degradation of SALL4, a transcription factor implicated in Duane Radial Ray syndrome. Ehfe 7, doi:10.7554/eLife.38430 (2018)). Data are available in the PRIDE repository (PXD016185).
# [1] = biological target: T1, BCL6-eGFP fusion construct (Homo sapiens, UniProt P41182); assay: Live cell imaging of BCL6-eGFP foci in HEK293T cells; format: cell-based; conditions: HEK293T cells, full length BCL6 and eGFPBCL6^1-275, 1 μM
# T1 construct: expressed in transfected cells; host or cells: HEK293TCas9 cells, lentiviral transduction (Cilantro2 vector)
# Procedure: 1×10^3 HEK293T cells per cm^2 were seeded in a μ-Slide 8 Well chamber (ibidi) and cultured for 18-24 h under standard growth conditions. Cell culture medium was exchanged to CO2 independent media (Gibco) and imaged with the DeltaVision Ultra High-Resolution Microscope (GE Healthcare, 100×lens, oil refraction index=1.520). The following acquisition parameters were used: Image size […], binning 1×1, GFP exposure time 0.08 sec. and the Neutral Density (% T) filter 32%. To capture foci within all cell volume, around 26μm per cell was imaged every 0.4-0.5 μm. Images were deconvolved (10 cycles, conservative conditions) and projected using maximal intensity by softWoRx® 7.0.0. Images for movies were taken every 10 minutes and combined to a movie by QuickTime.
# endogenous BCL6 = biological target: T2, endogenous BCL6 (Homo sapiens, UniProt P41182); assay: Immunofluorescence of endogenous BCL6 in SuDHL4 cells; format: cell-based; conditions: 1 μM BI-3802, 1 hour
# T2 construct: endogenous in cells; host or cells: SuDHL4 / SuDHL4Cas9 cells
# Procedure: (§1) In vitro ubiquitination for identification of compatible E2 conjugating enzymes was performed by following the manufacturer's instructions (K-982, Boston Biochem), using Strep II-Avi-BCL6^5-360 and Flag-SIAH1^FL. Time-course in vitro ubiquitination was performed by mixing the substrate (BCL6, 2 μM), E3 (SIAH, 0.5 μM), E1 (UBA1, Boston Biochem, 0.2 μM, E2 (UBE2D1, Boston Biochem, 0.5 μM), and ubiquitin (Boston Biochem, 50 μM), with a reaction buffer (B-71, Boston Biochem) containing BI-3802 or DMSO (normalized to 1% DMSO) in 15 μL volume each. Reactions were initiated by adding 5 μL of Mg-ATP solution (B-20, Boston Biochem), incubated for up to 60 min at 37° C., and analyzed by western blot using Strep tag II Antibody HRP conjugate (71591-3, Sigma) at 1:4,000. 0.8×10^6 cells/mL SuDHL4 cells were treated with DMSO or 0.5 μM E1 Inhibitor (3 h)+1 μM BI-3802 (I h) and 200 μL of the cell suspension was immobilized on a slide using the Cytospin™ 4 Cytocentrifuge (CytoSpin 4, A78300003; 6000 rpm, 6 min). Medium was aspirated and cells were fixed with 4% formaldehyde diluted in warm PBS for 15 min at room temperature. Slides were washed three times for 5 min with PBS, blocked and permeabilized with blocking solution (5% Normal Goat Serum (Cell Signaling), 0.3% Triton X-100 in PBS) for 60 min and stained with anti-BCL6 antibody in blocking solution overnight at 4° C. […]
# BCL6^5-360 = biological target: T3, BCL6^5-360 (Homo sapiens, UniProt P41182); assay: Size-exclusion chromatography of purified recombinant BCL6; format: biochemical; conditions: purified BCL6^5-360, 2 μM compound
# T3 construct: size-exclusion chromatogram of purified BCL6^5-360 in the presence of DMSO; made in house; host or cells: Trichoplusia ni High Five insect cells, baculovirus
# Source text: The human wild-type and mutant versions of BCL6 (residue 5-129 or 5-360) and SIAH1 variants (residue 90-282 (substrate binding domain, SBD) or full length), were cloned in pAC-derived vectors. Baculovirus for protein expression (Invitrogen) was generated by transfection into Spodoptera frugiperda (Sf9) cells at a density of 0.9×10^6 cells/mL grown in ESF 921 media (Expression Systems), followed by three rounds of infection in Sf9 cells to increase viral titer. Recombinant proteins were expressed and purified as N-terminal His6 C-terminal Spy (wild-type and mutant versions of BCL6^5-360), N-terminal Strep II-Avi (BCL6^5-129, BCL6^5-360, and SIAH1^SBD), and N-terminal Flag (SIAH1^FL) fusions in Trichoplusiani High Five insect cells using the baculovirus expression system (Invitrogen).
# [2] = biological target: T4, StrepBCL6^5-360 / full length SIAH1 (Homo sapiens, UniProt P41182); assay: In vitro ubiquitination of BCL6 by SIAH1; format: biochemical; conditions: recombinant polypeptides, 1 μM BI-3802 vs DMSO
# T4 construct: using Strep II-Avi-BCL6^5-360 and Flag-SIAH1^FL; made in house; host or cells: Trichoplusia ni High Five insect cells, baculovirus
# Procedure: as §1
# BCL6^5-129 = biological target: T5, BCL6^5-129 (Homo sapiens, UniProt P41182); assay: BCL6-BCoR TR-FRET (compound binding assay); conditions: 0.1 μM FITCBCoR polypeptide, 0.1 μM BiotinBCL6^5-129
# T5 construct: mixing 100 nM biotinylated BCL6^5-129, 100 nM N-terminal FITC-labeled BCoR peptide; made in house; host or cells: Trichoplusia ni High Five insect cells, baculovirus
# Procedure: Competitive titration of BI-3802 or BI-3812 were carried out by mixing 100 nM biotinylated BCL6^5-129, 100 nM N-terminal FITC-labeled BCoR peptide (sequence: […]), and 2 nM terbium-coupled streptavidin in the same assay buffer. After dispensing the assay mixture (15 μL volume), increasing concentrations of compounds were dispensed in a 384-well microplate (Corning, 4514) using a D300e Digital Dispenser (HP) normalized to 1% DMSO. The 520/490 nm ratios were measured as described above and plotted to calculate the KD^APP values using dose-response analysis standard four parameter log-logistic curves using the dr4pl R package.
# lymphoma cells = conditions: cited from earlier work
structure (smiles),measurement,setting,value
"CNC(=O)COc1cc2cc(Nc3nc(N4C[C@H](C)C[C@H](C)C4)ncc3Cl)ccc2n(C)c1=O [BI-3802, 2-((6-((5-chloro-2-((3S,5R)-3,5-dimethylpiperidin-1-yl)pyrimidin-4-yl)amino)-1-methyl-2-oxo-1,2-dihydroquinolin-3-yl)oxy)-N-methylacetamide]",change in polypeptide abundance (whole proteome),SuDHL4Cas9 cells,BCL6 was the only polypeptide with significantly decreased abundance
same,eGFP-containing BCL6 foci formation,[1],appearance of distinct eGFP-containing foci was observed within minutes
same,endogenous BCL6 foci formation,endogenous BCL6,endogenous BCL6 also formed foci
same,higher molecular weight species of recombinant BCL6,BCL6^5-360,led to higher molecular weight species of BCL6
same,rate and magnitude of BCL6 ubiquitination by SIAH1,[2],accelerated
same,affinity of compound to BCL6 (BCoR peptide competition),BCL6^5-129,comparable affinity
same,activity against lymphoma cells compared to BI-3812,lymphoma cells,markedly increased activity against lymphoma cells
